In brackets after ≈: the same amount, converted by molar mass.

One assay concerns Mycobacterium tuberculosis H37Rv strains. Nature of the assay: In vitro assay for antimicrobial susceptibility (microplate Alamar blue MIC). It is filed as cell-based. The conditions noted are these: Mycobacterium tuberculosis, H37RV, 7H9, Alamar blue, inhibition ≧90%; read-out: MIC (μg/mL) against H37Rv. On the technique in general: Alamar Blue is a resazurin reagent that responds to reducing activity.
As for `CC(C)/N=c1\cc2n(-c3ccc(F)c(F)c3)c3ccccc3nc-2cc1Nc1ncccn1` [TBI-1437, 5-(3,4-Difluorophenyl)-3-(1-methylethyl)imino-2-(pyrimidin-2-yl)amino-3,5-dihydrophenazine], the MIC amounted to 0.02 µg/mL (≈ 0.0452 µM).

As for `COC1CCC(/N=c2\cc3n(-c4ccc(F)c(F)c4)c4ccccc4nc-3cc2Nc2ncccn2)CC1` (centres unmarked) [TBI-1433, 5-(3,4-Difluorophenyl)-3-(4-methoxycyclohexyl)imino-2-(pyrimidin-2-yl)amino-3,5-dihydrophenazine], the MIC worked out at 0.086 µg/mL (≈ 0.168 µM).

As for `COC1CCC(/N=c2\cc3n(-c4ccc(F)cc4)c4ccccc4nc-3cc2Nc2ncccc2[N+](=O)[O-])CC1` (centres unmarked) [TBI-1083, 5-(4-Fluorophenyl)-3-(4-methoxycyclohexyl)imino-2-(3-nitro-2-pyridyl)amino-3,5-dihydrophenazine], the MIC amounted to 5.81 µg/mL (≈ 10.8 µM). Regarding `COC1CCC(/N=c2\cc3n(-c4ccc(F)cc4)c4ccccc4nc-3cc2Nc2ccccn2)CC1` (centres unmarked) [TBI-1078, 5-(4-Fluorophenyl)-3-(4-methoxycyclohexyl)imino-2-(2-pyridyl)amino-3,5-dihydrophenazine], the MIC was 0.028 µg/mL (≈ 0.0567 µM). Same read-out and setting: to `CC(C)/N=c1\cc2n(-c3ccc(Cl)cc3)c3ccccc3nc-2cc1Nc1ncccc1C#N` [TBI-1075, 5-(4-Chlorophenyl)-3-(1-methylethyl)imino-2-(3-cyano-2-pyridyl)amino-3,5-dihydrophenazine] belongs 0.016 µg/mL (≈ 0.0344 µM); to `Fc1ccc(-n2c3c/c(=N\C4CCOCC4)c(Nc4ccccn4)cc-3nc3ccccc32)cc1` [TBI-1087, 5-(4-Fluorophenyl)-3-(4-tetrahydropyranyl)imino-2-(2-pyridyl)amino-3,5-dihydrophenazine], 0.028 µg/mL (≈ 0.0601 µM).

The assay is the same for the next values; noted with them: Mycobacterium tuberculosis, H37RV, in vitro, Mycobacterium tuberculosis H37Rv strains; read-out: MIC (μg/mL) against H37Rv.
On to `Cc1ccc(Nc2cc3nc4ccccc4n(-c4ccc(F)cc4)c-3c/c2=N\C2CCOCC2)cn1` [TBI-900, 5-(4-Fluorophenyl)-3-(4-tetrahydropyranyl)imino-2-(6-methyl-3-pyridyl)amino-3,5-dihydrophenazine], for which the MIC was found to be 0.125 µg/mL (≈ 0.261 µM). As for `Cc1ccc(Nc2cc3nc4ccccc4n(-c4ccc(F)cc4)c-3c/c2=N\C2CCSCC2)cn1` [TBI-90B, 5-(4-Fluorophenyl)-3-(4-tetrahydrothiopyranyl)imino-2-(6-methyl-3-pyridyl)amino-3,5-dihydrophenazine], the MIC was 0.397 µg/mL (≈ 0.801 µM). Consider `Cc1ccc(Nc2cc3nc4ccc(F)cc4n(-c4ccc(OC(F)(F)F)cc4)c-3c/c2=N\C2CCCCC2)cn1` [TBI-853, 7-Fluoro-5-(4-trifluoromethoxyphenyl)-3-cyclohexylimino-2-(6-methyl-3-pyridyl)amino-3,5-dihydrophenazine], for which the MIC stood at 0.025 µg/mL (≈ 0.0445 µM).

As for `COC1CCC(/N=c2\cc3n(-c4ccc(OC(F)(F)F)cc4)c4cc(F)ccc4nc-3cc2Nc2ccc(C)nc2)CC1` (centres unmarked) [TBI-852, 7-Fluoro-5-(4-trifluoromethoxyphenyl)-3-(4-methoxycyclohexyl)imino-2-(6-methyl-3-pyridyl)amino-3,5-dihydrophenazine], the MIC worked out at 0.024 µg/mL (≈ 0.0406 µM). On to `COc1ccc(Nc2cc3nc4ccccc4n(-c4ccc(F)cc4)c-3c/c2=N\[C@H]2CC[C@H](OC)CC2)cn1` [TBI-933, 5-(4-Fluorophenyl)-3-(1′,4′-trans-4-methoxycyclohexyl)imino-2-(6-methoxy-3-pyridyl)amino-3,5-dihydrophenazine], for which the MIC was 0.175 µg/mL (≈ 0.334 µM). In the case of `CC(C)/N=c1\cc2n(-c3ccc([S+](C)[O-])cc3)c3ccccc3nc-2cc1Nc1cccnc1` (centres unmarked) [TBI-457, 5-(4-Methylsulfinylphenyl)-3-(1-methylethyl)imino-2-(3-pyridyl)amino-3,5-dihydrophenazine], the MIC is 0.469 µg/mL (≈ 1 µM).

Consider `COCC(COC)/N=c1\cc2n(-c3ccc(C)cc3)c3ccccc3nc-2cc1Nc1cccnc1OC` [TBI-373, 5-(4-Methylphenyl)-3-(1,3-dimethoxyisopropyl)imino-2-(2-methoxy-3-pyridyl)amino-3,5-dihydrophenazine], for which the MIC turned out to be 0.125 µg/mL (≈ 0.245 µM). Take `Cc1ccc(Nc2cc3nc4cc(F)ccc4n(-c4ccc(OC(F)(F)F)cc4)c-3c/c2=N\C2CCCCC2)cn1` [TBI-865, 8-Fluoro-5-(4-trifluoromethoxyphenyl)-3-cyclohexylimino-2-(6-methyl-3-pyridyl)amino-3,5-dihydrophenazine]: the MIC turned out to be 0.031 µg/mL (≈ 0.0552 µM). Take `COC1CCC(/N=c2\cc3n(-c4ccc(C)cc4)c4ccccc4nc-3cc2Nc2ccc(C)nc2)CC1` (centres unmarked) [TBI-316, 5-(4-Methylphenyl)-3-(4-methoxycyclohexyl)imino-2-(6-methyl-3-pyridyl)amino-3,5-dihydrophenazine]: the MIC was found to be 0.028 µg/mL (≈ 0.0556 µM). `Cc1ccc(Nc2cc3nc4ccccc4n(-c4ccc(Cl)c(Cl)c4)c-3c/c2=N\C2CCCCC2)cn1` [TBI-354, 5-(3,4-Dichlorophenyl)-3-cyclohexylimino-2-(6-methyl-3-pyridyl)amino-3,5-dihydrophenazine]: the MIC is 0.229 µg/mL (≈ 0.433 µM). Same read-out and setting: the same measure for `Cc1ccc(Nc2cc3nc4cc(C#N)ccc4n(-c4ccc(F)cc4)c-3c/c2=N\C(C)C)cn1` [TBI-1067, 8-Cyano-5-(4-fluorophenyl)-3-(1-methylethyl)imino-2-(6-methyl-3-pyridyl)amino-3,5-dihydrophenazine]: 0.117 µg/mL (≈ 0.253 µM); for `Cc1ccc(-n2c3c/c(=N\C(C)C)c(Nc4cccnc4C)cc-3nc3ccccc32)cc1` [TBI-321, 5-(4-Methylphenyl)-3-(1-methylethyl)imino-2-(2-methyl-3-pyridyl)amino-3,5-dihydrophenazine]: 0.419 µg/mL (≈ 0.966 µM). In the case of `COc1ccc(Nc2cc3nc4ccccc4n(-c4ccc(C(F)(F)F)cc4)c-3c/c2=N\C2CCC2)cn1` [TBI-737, 5-(4-Trifluoromethylphenyl)-3-cyclobutylimino-2-(6-methoxy-3-pyridyl)amino-3,5-dihydrophenazine], the MIC was determined as 0.119 µg/mL (≈ 0.231 µM). For `CC(C)/N=c1\cc2n(-c3cccc([S+](C)[O-])c3)c3ccccc3nc-2cc1Nc1cccnc1` (centres unmarked) [TBI-455, 5-(3-Methylsulfinylphenyl)-3-(1-methylethyl)imino-2-(3-pyridyl)amino-3,5-dihydrophenazine], the MIC came out at 0.5 µg/mL (≈ 1.07 µM). For `Cc1cncc(Nc2cc3nc4ccccc4n(-c4ccccc4)c-3c/c2=N\C2CC2)c1` [TBI-096, 5-Phenyl-3-cyclopropylimino-2-(5-methyl-3-pyridyl)amino-3,5-dihydrophenazine], the MIC turned out to be 0.069 µg/mL (≈ 0.165 µM).

`Cc1ccc(Nc2cc3nc4ccccc4n(-c4ccc(Cl)cc4)c-3c/c2=N\C2CCN(C)CC2)cn1` [TBI-446, 5-(4-Chlorophenyl)-3-(N-methyl-4-piperidyl)imino-2-(6-methyl-3-pyridyl)amino-3,5-dihydrophenazine]: the MIC turned out to be 0.016 µg/mL (≈ 0.0314 µM).

Take `Cc1cncc(Nc2cc3nc4ccccc4n(-c4ccc(C(F)(F)F)cc4)c-3c/c2=N\C2CCCCC2)c1` [TBI-722, 5-(4-Trifluoromethylphenyl)-3-cyclohexylimino-2-(5-methyl-3-pyridyl)amino-3,5-dihydrophenazine]: the MIC was 0.031 µg/mL (≈ 0.0588 µM).

For the compound `Cc1ccc(Nc2cc3nc4ccccc4n(-c4ccc(Cl)c(Cl)c4)c-3c/c2=N\C2CCOCC2)cn1` [TBI-945, 5-(3,4-Dichlorophenyl)-3-(4-tetrahydropyranyl)imino-2-(6-methyl-3-pyridyl)amino-3,5-dihydrophenazine], the MIC is 0.25 µg/mL (≈ 0.471 µM).

Regarding `COc1ncccc1Nc1cc2nc3ccc(F)cc3n(-c3ccc(Cl)cc3)c-2c/c1=N\C1CCOCC1` [TBI-928], the MIC is 0.5 µg/mL (≈ 0.943 µM).

Take `Cc1cncc(Nc2cc3nc4ccccc4n(-c4ccc(F)cc4)c-3c/c2=N\C2CCC2)c1` [TBI-1031]: the MIC came to 0.028 µg/mL (≈ 0.0623 µM). Take `COC1CCC(/N=c2\cc3n(-c4ccc(Br)cc4)c4ccccc4nc-3cc2Nc2cccnc2C)CC1` (centres unmarked) [TBI-509, 5-(4-Bromophenyl)-3-(4-methoxycyclohexyl)imino-2-(2-methyl-3-pyridyl)amino-3,5-dihydrophenazine]: the MIC amounted to 0.015 µg/mL (≈ 0.0264 µM). Turning to `FC(F)(F)c1ccc(-n2c3c/c(=N\CCN4CCOCC4)c(Nc4cccnc4)cc-3nc3ccccc32)cc1` [TBI-690, 5-(4-Trifluoromethylphenyl)-3-(2-morpholinoethyl)imino-2-(3-pyridyl)amino-3,5-dihydrophenazine], the MIC was 0.125 µg/mL (≈ 0.23 µM). Regarding `COc1ncccc1Nc1cc2nc3ccc(F)cc3n(-c3ccc(OC(F)(F)F)cc3)c-2c/c1=N\C1CCCCC1` [TBI-856, 7-Fluoro-5-(4-trifluoromethoxyphenyl)-3-cyclohexylimino-2-(2-methoxy-3-pyridyl)amino-3,5-dihydrophenazine], the MIC was determined as 0.029 µg/mL (≈ 0.0502 µM). As to `C/N=c1\cc2n(-c3ccccc3)c3ccccc3nc-2cc1Nc1cccnc1C` [TBI-078], the MIC worked out at 0.019 µg/mL (≈ 0.0485 µM). For `Cc1cncc(Nc2cc3nc4ccccc4n(-c4ccc(C(F)(F)F)cc4)c-3c/c2=N\C2CCC2)c1` [TBI-726, 5-(4-Trifluoromethylphenyl)-3-cyclobutylimino-2-(5-methyl-3-pyridyl)amino-3,5-dihydrophenazine], the MIC was found to be 0.058 µg/mL (≈ 0.116 µM).

As for `Fc1ccc(-n2c3c/c(=N\C4CCN(C5CCCC5)CC4)c(Nc4cccnc4)cc-3nc3ccccc32)cc1` [TBI-684, 5-(4-Fluorophenyl)-3-(N-cyclopentyl-4-piperidyl)imino-2-(3-pyridyl)amino-3,5-dihydrophenazine], the MIC turned out to be 0.5 µg/mL (≈ 0.939 µM).

`COC1CCC(/N=c2\cc3n(-c4ccc(OC(F)(F)F)cc4)c4ccc(F)cc4nc-3cc2Nc2ccc(C)nc2)CC1` (centres unmarked) [TBI-866, 8-Fluoro-5-(4-trifluoromethoxyphenyl)-3-(4-methoxycyclohexyl)imino-2-(6-methyl-3-pyridyl)amino-3,5-dihydrophenazine]: the MIC was determined as 0.027 µg/mL (≈ 0.0456 µM).

Regarding `COC1CCC(/N=c2\cc3n(-c4ccc(F)cc4)c4ccc(C#N)cc4nc-3cc2Nc2ccc(C)nc2)CC1` (centres unmarked) [TBI-1068, 8-Cyano-5-(4-fluorophenyl)-3-(4-methyoxycyclohexyl)imino-2-(6-methyl-3-pyridyl)amino-3,5-dihydrophenazine], the MIC was 0.165 µg/mL (≈ 0.31 µM). Still for that read-out and setting: the same measure for `Fc1ccc(-n2c3c/c(=N\C4CCC4)c(Nc4cccnc4)cc-3nc3ccccc32)cc1` [TBI-923, 5-(4-Fluorophenyl)-3-cyclobutylimino-2-(3-pyridyl)amino-3,5-dihydrophenazine]: 0.021 µg/mL (≈ 0.0482 µM).

Values taken from patent US8716292B2, “Riminophenazines with 2-(heteroaryl)amino substituents and their anti-microbial activity” (priority 2010, dated 2014).
